Measurements as given in US20030086869A1, “Methods and kits for diagnosing a pancreatic-based fat malabsorption disorder” (priority 2001, published 2003).

Columns and labels:
Assay type in all cases: in vivo, human
[1] = MBT serum levels of PA and HA in subjects with CF and pancreatic insufficiency on and off pancreatic enzymes
Procedure: (§1) Both whole post-absorptive serum and isolated chylomicron fractions of the serum are analyzed for fatty acid composition. Chylomicrons are isolated from plasma by centrifugation at d=1.006 g/ml for 30 minutes at 26,000 g (Hatch, F. T., et al., 1968; Adv. Lipid Res., 6:1-68). Total lipids are extracted from each specimen following the method of Bligh and Dyer (Bligh, E. G., et al., 1959; Can. J. Biochem., 37:911-917). Following transmethylation of the lipid extracts using BF3-methanol, fatty acid composition is determined using gas-liquid chromatographic (GLC) analysis using a Hewlett Packard GLC equipped with a flame ionization detector, an automatic 7673 sampler and […]×0.25 mm ID column composed of a 0.20 micron film of SP-2560 (Supelco, Bellefonte, Pa.) (Morrison, W., et al., 1964; J. Lipid Res. 5:600-608). The temperature is programmed to change from 140° C. to 240° C. at a rate of 4° C./minute. At the time of extraction, heptadecanoic methyl ester is added as an internal standard.
Subjects with CF and pancreatic insufficiency currently treated with pancreatic enzymes, aged greater than 8 years were recruited. Exclusion criteria included: forced expiratory volume of the lungs at 1 second (FEV1) <40%, a history of fibrosing colonopathy or significant bowel resection (>10 cm), mental retardation, significant neurological deficit, developmental disability and autism. Subjects are in their usual state of good health. This age range was selected because it includes children during active growth where information regarding degree of malabsorption leads to improved nutritional intervention and pancreatic enzyme therapy. Also, children greater than 8 years of age are mature enough to provide assent and feedback concerning acceptability and tolerance of the MBT.
In the experiments shown in FIGS. 12 through 15, three subjects with CF were given either 30 mg/kg PA and 60 mg/kg THA (2 subjects) or 30 mg/kg PA and 90 mg/kg THA (1 subject) in a digestible composition consisting of a liquid breakfast shake after a 12 hour fast. The subjects were tested while they were taking their usual doses of pancreatic enzymes and then were tested again (more than one week later) when they were not taking pancreatic enzymes. Blood was sampled at baseline and then at hourly intervals from 2 to 8 hours and then sampled again at 24 hours. Subjects were fed a prepared lunchtime meal with a known quantity of fat (80 grams). The individual results for fat absorption for the 3 subjects with CF on enzymes are presented in FIG. 12 for PA and FIG. 13 for HA. For the same 3 subjects with CF off enzymes, the results for fat absorption are presented in FIG. 14 for PA and FIG. 15 for HA.
Additional experiments were performed on six subjects with CF either on or off pancreatic enzyme treatment. The serum levels of PA and HA in these six subjects on and off pancreatic enzyme treatment are presented in FIG. 16 anf FIG. 17, respectively.

[2] = Malabsorption Blood Test (MBT): serum levels of PA and HA after oral PA and THA test breakfast meal in healthy control subjects
Procedure: as §1
Healthy control subjects between 18 and 50 years of age were selected. Exclusion criteria included: any chronic illness known to affect nutrient absorption, body mass index (BMI) <21 or >30 kg/m^2 (generally accepted healthy adult ranges), therapy with lipid lowering drugs, diabetes mellitus (NIDDM and IDDM), disorders associated with altered energy metabolism (e.g., hypothyroidism) and disinterest in participating in all three dosing experiments. This adult age range was selected for several reasons: (a) adult subjects are likely to remain committed to all three components of the study; (b) adults will understand the need to provide reliable feedback on taste and tolerance of the test breakfast meal and the entire malabsorption test procedure; and (c) adult subjects are able to plan the experimental day for full cooperation with the multiple phlebotomy events from 0700 to 1500 hours.
Upon arrival at the study center, subjects had their weight and height measured and an experienced phlebotomist inserted a self-retaining intravenous catheter with a heparin lock for serial blood sampling. After initially drawing 2 milliliters of blood into a sterile syringe, the experimental blood sample (2 milliliters) was drawn and immediately stored in a 4-milliliter serum separator tube. Thereafter, the initial 2 milliliters of blood was infused back into the catheter followed by 2 milliliters of heparin flush. After the baseline blood samples were obtained, the subjects drank an approximately 8 to 12 ounce liquid test breakfast meal. This meal contained one to three doses of PA and THA in a random distribution. Subjects were asked to consume the test breakfast meal within five minutes. Thereafter, serial blood samples were obtained at regular intervals over a period ranging from 30 minutes to 24 hours. During the initial eight-hour period, subjects were permitted to ingest non-caloric and non-caffeinated beverages. A study protocol lunch of known fat content was provided and actual food intake was recorded. Ambulation was limited to maintain adherence to the 30 to 60 minute intervals in the blood sampling schedule. After completion of the blood sampling, the catheter was removed, a snack was offered, and the subjects were encouraged to consume a full meal. The lipid doses (mg/kg) of PA and THA used in this experiment were based on doses 10-fold higher than similar fats used to correct essential fatty acid deficiency in cystic fibrosis, and previous studies which used ^13C […] to qualitatively assess fat malabsorption in pancreatic disease (Rosenlund, M. L., et al., 1977;Pediatrics, 59:428-32; Wutzke, K. D., et al., 1999; J. Pediatr. Gastroenterol. Nutr., 29:148-54).
Four healthy control subjects were administered a dose of 30 mg/kg PA and 30 mg/kg THA in the digestible composition (a liquid breakfast shake) after a 12-hour fast. Blood was drawn at baseline before consumption of the shake and then every 30 minutes thereafter until hour 6. […]

[3] = MBT absorption of PA and HA prior to Orlistat in fifteen healthy subjects; conditions: PA 2.5 grams and THA 8.0 grams, FIG. 10, 11
Text: Fifteen healthy adult subject volunteers (9 women) 18 to 50 years of age were recruited through local advertisements. Exclusion criteria included: any chronic illness known to affect nutrient absorption, body mass index (BMI) of less than 21 or greater than 30 kg/m^2 (i.e., outside of generally accepted healthy adult ranges), therapy with lipid lowering drugs, diabetes mellitus (NIDDM, IDDM) and disorders associated with altered energy metabolism (e.g., hypothyroidism). This adult age range was selected because Orlistat is FDA approved in adults. In addition, adults are able to plan the experimental days for cooperation with four days of the research study diet, outpatient 72-hour stool collection and phlebotomy requirements. […]
Subjects underwent a 12-hour fast from 2100 hours on day #1 of the study. […] Upon arrival at the study center on the morning of day #2, subjects had their weight and height measured, and an experienced phlebotomist inserted a self-retaining intravenous catheter with a heparin lock for serial blood sampling. […] The number and timing of blood samples was determined by the experiments in Example 1, and was expected to be six or fewer samples over an eight-hour or less time period. […]

[4] = four healthy control subjects, 30 mg/kg PA and 60 mg/kg THA, FIG. 3A, 4, 5A
[5] = four healthy control subjects, 30 mg/kg PA and 90 mg/kg THA, FIG. 6-8

- hour by which serum levels increased ([1]; subjects with CF off pancreatic enzymes): ≤ 2 h
- hour by which increase in absorption was evident ([1]; subjects with CF on pancreatic enzymes): ≤ 2 h
- serum levels compared with healthy control subjects ([1]; subjects with CF taking pancreatic enzymes): lower
- delay before rise in serum concentration ([2]; four healthy control subjects, 30 mg/kg PA and 30 mg/kg THA, liquid breakfast shake after 12-hour fast, FIG. 2): approximately half
- time at which increase in serum level is evident / begins [2, 4]: ≤ 2 h
- time of peak serum level [2, 4]: 6 h
- time at which increase in serum level is evident [2, 5]: ≤ 2 h
- time of peak serum level [2, 5]: 6 h
- peak serum level ([2]; four healthy control subjects, 30 mg/kg PA and either 60 or 90 mg/kg THA oral at baseline, FIG. 1 model): approximately 4 mg/dL
- time of peak serum level ([2]; four healthy control subjects, 30 mg/kg PA and either 60 or 90 mg/kg THA oral, FIG. 1 model): six
- concentration at 8 h ([2]; human, serum, four healthy control subjects, 30 mg/kg PA and either 60 or 90 mg/kg THA oral, FIG. 1 model, read-out: serum level by eight hours post dose): ~10000 ng/mL
- average absorption [3]: approximately 65%
Compound: CCCCCCCCCCCCCCC(=O)O [PA, pentadecanoic acid]
- pattern of serum response ([2]; six healthy volunteers, PA 2.5 grams and THA 5.0 or 8.0 grams, FIG. 3B): increasing over the first two hours and remaining elevated through hour six
